In publication PMC5805748 (2018):

Key:
[1] = test system: 21CTA-D (DNA, G4) GGGCTAGGGCTAGGGCTAGGG; experiment: native PAGE post-staining; conditions: 20 μM ThT-E stain; band seen
[2] = test system: 22Ag-D (DNA, G4) AGGGTTAGGGTTAGGGTTAGGG; experiment: ITC; conditions: K+ 40 mM; 20 mM Tris-HCl, pH 7.4; 500 μM ligand into 25 μM DNA
[3] = test system: B-raf-D (DNA, G4) GGGCGGGGAGGGGGAAGGGA; experiment: fluorescence light-up; conditions: K+ 40 mM; 20 mM Tris-HCl, pH 7.4; 2 μM ThT-E, 2 μM DNA
[4] = test system: VAV1-D (DNA, G4) GGGCAGGGAGGGAACTGGG; experiment: ITC; conditions: K+ 40 mM; 20 mM Tris-HCl, pH 7.4; 500 μM ligand into 25 μM DNA
[5] = test system: dx12-D (DNA, duplex) GCGTGAGTTCGG/CCGAACTCACGC; experiment: native PAGE post-staining; conditions: 20 μM ThT-E stain; no band
[6] = test system: BCL-2Mid-D (DNA, G4) GGGCGCGGGAGGAATTGGGCGGG; experiment: native PAGE post-staining; conditions: 20 μM ThT-E stain; band seen
[7] = test system: c-myc-D (DNA, G4) TGAGGGTGGGTAGGGTGGGTAA; experiment: 1H NMR titration; conditions: K+ 40 mM; phosphate buffer, pH 7.4, 25 °C; stacks on 5'-end G-tetrad
[8] = test system: CT4-D (DNA, G4) GGGCTTTTGGGC; experiment: fluorescence light-up; conditions: K+ 40 mM; 20 mM Tris-HCl, pH 7.4; 2 μM ThT-E, 2 μM DNA
[9] = test system: Bulges-TB1 (DNA, G4) TTGTGGTGGGTGGGTGGGT; experiment: fluorescence light-up; conditions: K+ 40 mM; 20 mM Tris-HCl, pH 7.4; 2 μM ThT-E; 46.05-fold
[10] = test system: ssAf17-D (DNA, single strand) CTGAGTTGTATATATTCG; experiment: native PAGE post-staining; conditions: 20 μM ThT-E stain; no band; 2.77-fold fluorescence
[11] = test system: ERSI-D (DNA, G4) GGGTAGGGGCAAAGGGGCTGGGG; experiment: ITC; conditions: K+ 40 mM; 20 mM Tris-HCl, pH 7.4; 500 μM ligand into 25 μM DNA
[12] = test system: 19AT-D (DNA, duplex) ACGTCGATTATAGACGAGC/GCTCGTCTATAATCGACGT; experiment: native PAGE post-staining; conditions: 20 μM ThT-E stain; no band; fluorescence rise below 3-fold
[13] = test system: G-tripl-D (DNA, other) GGTTGGTGTGG; experiment: native PAGE post-staining; conditions: 20 μM ThT-E stain; no band
[14] = test system: c-myc-D (DNA, G4) TGAGGGTGGGTAGGGTGGGTAA; experiment: UV-vis titration; conditions: 2 μM ThT-E, 0 to 8 μM DNA; 23 nm red shift
[15] = test system: TBA-D (DNA, G4) GGTTGGTGTGGTTGG; experiment: fluorescence light-up; conditions: K+ 40 mM; 20 mM Tris-HCl, pH 7.4; 2 μM ThT-E, 2 μM DNA
[16] = test system: ADAM10-D (DNA, G4) GGGGGACGGGTAGGGGCGGGAGGTAGGGG; experiment: fluorescence light-up; conditions: K+ 40 mM; 20 mM Tris-HCl, pH 7.4; 2 μM ThT-E, 2 μM DNA; 159-fold
[17] = test system: Insulin a2-D (DNA, G4) ACAGGGGTGTGGGGACAGGGGTGTGGGG; experiment: native PAGE post-staining; conditions: 20 μM ThT-E stain; band seen
[18] = test system: 45Ag-D (DNA, G4) GGGTTAGGGTTAGGGTTAGGGTTAGGGTTAGGGTTAGGGTTAGGG; experiment: fluorescence light-up; conditions: K+ 40 mM; 20 mM Tris-HCl, pH 7.4; 2 μM ThT-E, 2 μM DNA; 146-fold
[19] = test system: 32 Kras-D (DNA, G4) AGGGCGGTGTGGGAAGAGGGAAGAGGGGGAGG; experiment: fluorescence light-up; conditions: K+ 40 mM; 20 mM Tris-HCl, pH 7.4; 2 μM ThT-E, 2 μM DNA; 125-fold
[20] = test system: 35B1(Kras)-D (DNA, G4) AGGGCGGTGTGGGAAGAGGGAAGAGGGGGAGGCAG; experiment: CD titration; conditions: no added salt; 20 mM Tris-HCl, pH 7.4; 0 to 30 μM ThT; induces parallel G4
[21] = test system: 32 Kras-D (DNA, G4) AGGGCGGTGTGGGAAGAGGGAAGAGGGGGAGG; experiment: CD titration; conditions: no added salt; 20 mM Tris-HCl, pH 7.4; 0 to 30 μM ThT; induces parallel G4

CCN(CC)c1ccc(-c2sc3cc(C)ccc3[n+]2CC)cc1
binding [1]: yes | dissociation constant [2]: 17.78 µM | binding [3]: yes | dissociation constant [4]: 74.73 µM | binding [5]: no | binding [6]: yes | binding [7]: yes | binding [8]: weak | binding [9]: yes | binding [10]: no | dissociation constant [11]: 56.81 µM | binding [12]: no | binding [13]: no | binding [14]: yes | binding [15]: weak | binding [16]: yes | binding [17]: yes | binding [18]: yes | binding [19]: yes

Cc1ccc2c(c1)sc(-c1ccc(N(C)C)cc1)[n+]2C
dissociation constant [2]: 22.03 µM | dissociation constant [4]: 334.4 µM | dissociation constant [11]: 233.4 µM | binding [20]: yes | binding [21]: yes
